From patent US20200079793A1, “COMPOUNDS AND METHODS FOR MODULATING ADENOSINE A2B RECEPTOR AND ADENOSINE A2A RECEPTOR” (CORVUS PHARMACEUTICALS, INC., priority 2018, published 2020) come the findings set out here.

For assay [1], the target named is T1, Adenosine A2B Receptor (Homo sapiens, UniProt P29275).
T1 sequence (P29275 1-332): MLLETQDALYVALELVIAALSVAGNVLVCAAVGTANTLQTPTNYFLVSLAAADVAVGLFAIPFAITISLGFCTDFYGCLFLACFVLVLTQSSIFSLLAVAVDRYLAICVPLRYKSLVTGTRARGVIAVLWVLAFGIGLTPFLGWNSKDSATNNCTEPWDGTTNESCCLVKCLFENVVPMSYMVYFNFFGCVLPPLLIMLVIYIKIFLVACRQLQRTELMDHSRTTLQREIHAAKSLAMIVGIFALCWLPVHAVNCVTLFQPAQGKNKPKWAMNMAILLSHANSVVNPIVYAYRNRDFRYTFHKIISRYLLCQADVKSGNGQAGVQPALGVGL
The experiment in a line: Activity assay of adenosine receptor modulators, Adenosine A2B Receptor (Table 1). Particulars: cAMP; read-out: A2BR cAMP IC50. Type of assay: biochemical. The protocol:
(§1) Compounds (e.g., adenosine receptor modulators) were tested for its biological activity. The assay results in Table 1 indicate (+ means >1 μM; ++ means 100 nM to 1 μM; +++ means <100 nM).

Assay [2] deals with Adenosine A2A Receptor (Homo sapiens, UniProt P29274). The experiment in a line: Activity assay of adenosine receptor modulators, Adenosine A2A Receptor (Table 1). Type of assay: biochemical. The conditions noted are these: cAMP; read-out: A2AR cAMP IC50. The protocol: as §1
For assay [3], the target named is T2, A1R (Homo sapiens, UniProt P30542).
T2 sequence (P30542 1-326): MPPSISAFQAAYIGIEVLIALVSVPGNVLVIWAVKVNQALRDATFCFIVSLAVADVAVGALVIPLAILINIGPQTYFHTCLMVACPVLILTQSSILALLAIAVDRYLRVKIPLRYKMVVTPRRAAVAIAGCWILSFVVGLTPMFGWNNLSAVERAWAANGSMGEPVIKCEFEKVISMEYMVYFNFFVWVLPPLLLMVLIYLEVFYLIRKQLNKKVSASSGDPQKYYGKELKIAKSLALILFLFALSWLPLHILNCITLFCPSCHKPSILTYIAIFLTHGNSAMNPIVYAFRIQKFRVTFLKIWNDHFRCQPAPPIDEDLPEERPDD
Description: Activity assay of adenosine receptor modulators, A1R cAMP (Table 1). Type of assay: cell-based. As to the method:
as §1

Assay [4] deals with T3, A3R (Homo sapiens, UniProt P0DMS8).
T3 sequence (P0DMS8 1-318): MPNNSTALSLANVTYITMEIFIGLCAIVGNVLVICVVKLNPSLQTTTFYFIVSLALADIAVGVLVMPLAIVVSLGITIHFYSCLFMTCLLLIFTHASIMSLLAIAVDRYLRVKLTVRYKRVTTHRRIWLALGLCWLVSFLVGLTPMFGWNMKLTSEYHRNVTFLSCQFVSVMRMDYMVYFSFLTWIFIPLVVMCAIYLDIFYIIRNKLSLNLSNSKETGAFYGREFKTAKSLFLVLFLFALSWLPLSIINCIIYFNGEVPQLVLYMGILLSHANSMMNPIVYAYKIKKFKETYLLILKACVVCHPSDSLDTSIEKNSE
The experiment in a line: Activity assay of adenosine receptor modulators, A3R cAMP (Table 1). Type of assay: cell-based. The protocol:
as §1

pIC50: −log10 of the molar value.

Adenosine A2A Receptor, sequence (P29274 whole entry): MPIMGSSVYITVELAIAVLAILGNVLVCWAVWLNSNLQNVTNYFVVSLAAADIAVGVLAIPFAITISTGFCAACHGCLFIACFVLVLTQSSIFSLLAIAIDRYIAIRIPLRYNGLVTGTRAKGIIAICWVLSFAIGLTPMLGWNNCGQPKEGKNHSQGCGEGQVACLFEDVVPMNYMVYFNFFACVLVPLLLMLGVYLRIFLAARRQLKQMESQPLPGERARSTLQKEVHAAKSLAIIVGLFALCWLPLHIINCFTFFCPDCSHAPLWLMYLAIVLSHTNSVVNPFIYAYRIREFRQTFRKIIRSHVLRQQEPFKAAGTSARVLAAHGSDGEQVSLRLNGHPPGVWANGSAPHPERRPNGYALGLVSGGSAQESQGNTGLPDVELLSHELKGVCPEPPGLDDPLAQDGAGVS

Usually pIC50 stands for −log10 of the IC50, conventionally taken in molar units. Regarding `Cc1nc2nc(N[C@@H](C)c3cncc(F)c3)nc(C(=O)N3CC(NC(=O)NC(C)(C)C)C3)c2s1` [Example 57, (S)-1-(tert-Butyl)-3-(1-(5-((1-(5-fluoropyridin-3-yl)ethyl)amino)-2-methylthiazolo[4,5-d]pyrimidine-7-carbonyl)azetidin-3-yl)urea], the pIC50 in assay [1] is above 7.00; in assay [2], above 7.00; in assay [3] it was below 6.00; in assay [4], 6.00 to 7.00.

Regarding `Cc1nc2nc(N[C@@H](C)c3cncc(F)c3)nc(C(=O)N3CC(NC(=O)c4ccccc4)C3)c2s1` [Example 58, (S)—N-(1-(5-((1-(5-Fluoropyridin-3-yl)ethyl)amino)-2-methylthiazolo[4,5-d]pyrimidine-7-carbonyl)azetidin-3-yl)benzamide], the negative-log IC50 (pIC50) is above 7.00 in assay [1], above 7.00 in assay [2], below 6.00 in assay [3] and above 7.00 in assay [4].

Take `Cc1nc2nc(N[C@@H](C)c3cncc(F)c3)nc(C(=O)N3CC(NC(=O)c4ccccc4F)C3)c2s1` [Example 59, (S)-2-Fluoro-N-(1-(5-((1-(5-fluoropyridin-3-yl)ethyl)amino)-2-methylthiazolo[4,5-d]pyrimidine-7-carbonyl)azetidin-3-yl)benzamide]: the pIC50 in assay [1] is above 7.00; in assay [2] it was above 7.00; in assay [3], below 6.00; in assay [4], 6.00 to 7.00.

In the case of `Cc1nc2nc(N[C@@H](C)c3cncc(F)c3)nc(C(=O)N3CC(NC(=O)NC4CCCC4)C3)c2s1` [Example 60, (S)-1-Cyclopentyl-3-(1-(5-((1-(5-fluoropyridin-3-yl)ethyl)amino)-2-methylthiazolo[4,5-d]pyrimidine-7-carbonyl)azetidin-3-yl)urea], the pIC50 in assay [1] was above 7.00; in assay [2], above 7.00; in assay [3], below 6.00; in assay [4], 6.00 to 7.00.

As to `Cc1nc2nc(N[C@@H](C)c3cncc(F)c3)nc(C(=O)N3CC(NC(=O)C4CCCCC4)C3)c2s1` [Example 61, (S)—N-(1-(5-((1-(5-Fluoropyridin-3-yl)ethyl)amino)-2-methylthiazolo[4,5-d]pyrimidine-7-carbonyl)azetidin-3-yl)cyclohexanecarboxamide], the negative logarithm of the IC50 (pIC50) in assay [1] was above 7.00; in assay [2] it was above 7.00; in assay [3], below 6.00; in assay [4] it was above 7.00.

Regarding `Cc1nc2nc(N[C@@H](C)c3ccccn3)nc(C(=O)N3CC(NC(=O)C(C)(C)C)C3)c2s1` [Example 62, 2,2-Dimethyl-N-[1-[2-methyl-5-[[(S)-1-(2-pyridyl)ethyl]amino]thiazolo[4,5-d]pyrimidine-7-carbonyl]azetidin-3-yl]propanamide], the negative logarithm of the IC50 (pIC50) in assay [1] was above 7.00; in assay [2] it was above 7.00; in assay [3], below 6.00; in assay [4] it was 6.00 to 7.00.

For the compound `Cc1nc2nc(N[C@@H](C)c3ccccn3)nc(C(=O)N3CC(NC(=O)NC(C)(C)C)C3)c2s1` [Example 63, (S)-1-(tert-Butyl)-3-(1-(2-methyl-5-((1-(pyridin-2-yl)ethyl)amino)thiazolo[4,5-d]pyrimidine-7-carbonyl)azetidin-3-yl)urea], the negative-log IC50 (pIC50) in assay [1] is 6.00 to 7.00; in assay [2], above 7.00; in assay [3], below 6.00; in assay [4], 6.00 to 7.00.

Regarding `Cc1nc2nc(N[C@@H](C)c3cccnc3)nc(C(=O)N3CC(NC(=O)C(C)(C)C)C3)c2s1` [Example 64, (S)—N-(1-(2-Methyl-5-((1-(pyridin-3-yl)ethyl)amino)thiazolo[4,5-d]pyrimidine-7-carbonyl)azetidin-3-yl)pivalamide], the pIC50 in assay [1] was 6.00 to 7.00; in assay [2] it was above 7.00; in assay [3] it was below 6.00; in assay [4], 6.00 to 7.00.

With `Cc1nc2nc(N[C@@H](C)c3cncc(F)c3)nc(C(=O)N3CC(NC(=O)Nc4ccccc4)C3)c2s1` [Example 65, (S)-1-(1-(5-((1-(5-Fluoropyridin-3-yl)ethyl)amino)-2-methylthiazolo[4,5-d]pyrimidine-7-carbonyl)azetidin-3-yl)-3-phenylurea], the pIC50 was 6.00 to 7.00 in assay [1], above 7.00 in assay [2], below 6.00 in assay [3] and 6.00 to 7.00 in assay [4].

For `Cc1nc2nc(N[C@@H](C)c3cncc(F)c3)nc(C(=O)N3CC(NC(=O)C45CCC(CC4)CC5)C3)c2s1` [Example 67, (S)—N-(1-(5-((1-(5-Fluoropyridin-3-yl)ethyl)amino)-2-methylthiazolo[4,5-d]pyrimidine-7-carbonyl)azetidin-3-yl)bicyclo[2.2.2]octane-1-carboxamide], the pIC50 in assay [1] was above 7.00; in assay [2] it was above 7.00; in assay [3] it was below 6.00; in assay [4], above 7.00.

Consider `Cc1nc2nc(N[C@@H](C)c3cncc(F)c3)nc(C(=O)N3CC(NC(=O)C4CCOCC4)C3)c2s1` [Example 68, (S)—N-(1-(5-((1-(5-Fluoropyridin-3-yl)ethyl)amino)-2-methylthiazolo[4,5-d]pyrimidine-7-carbonyl)azetidin-3-yl)tetrahydro-2H-pyran-4-carboxamide], for which the negative logarithm of the IC50 (pIC50) in assay [1] is 6.00 to 7.00; in assay [2], above 7.00; in assay [3] it was below 6.00; in assay [4], 6.00 to 7.00.

Take `Cc1nc2nc(N[C@@H](C)c3cncc(F)c3)nc(C(=O)N3CC(NC(=O)C4CC(F)(F)C4)C3)c2s1` [Example 69, (S)-3,3-Difluoro-N-(1-(5-((1-(5-fluoropyridin-3-yl)ethyl)amino)-2-methylthiazolo[4,5-d]pyrimidine-7-carbonyl)azetidin-3-yl)cyclobutane-1-carboxamide]: the negative logarithm of the IC50 (pIC50) is 6.00 to 7.00 in assay [1], above 7.00 in assay [2], below 6.00 in assay [3] and 6.00 to 7.00 in assay [4].

Regarding `Cc1nc2nc(N[C@@H](C)c3cncc(F)c3)nc(C(=O)N3CC(NC(=O)C4(C(F)(F)F)CC4)C3)c2s1` [Example 70, (S)—N-(1-(5-((1-(5-Fluoropyridin-3-yl)ethyl)amino)-2-methylthiazolo[4,5-d]pyrimidine-7-carbonyl)azetidin-3-yl)-1-(trifluoromethyl)cyclopropane-1-carboxamide], the pIC50 in assay [1] is above 7.00; in assay [2], above 7.00; in assay [3], below 6.00; in assay [4], 6.00 to 7.00.

In the case of `COc1cccc(C(=O)NC2CN(C(=O)c3nc(N[C@@H](C)c4cncc(F)c4)nc4nc(C)sc34)C2)c1` [Example 71, (S)—N-(1-(5-((1-(5-Fluoropyridin-3-yl)ethyl)amino)-2-methylthiazolo[4,5-d]pyrimidine-7-carbonyl)azetidin-3-yl)-3-methoxybenzamide], the negative logarithm of the IC50 (pIC50) in assay [1] is above 7.00; in assay [2] it was above 7.00; in assay [3], below 6.00; in assay [4], 6.00 to 7.00.

As for `Cc1nc2nc(N[C@@H](C)c3cncc(F)c3)nc(C(=O)N3CC(NC(=O)c4ccoc4)C3)c2s1` [Example 72, (S)—N-(1-(5-((1-(5-Fluoropyridin-3-yl)ethyl)amino)-2-methylthiazolo[4,5-d]pyrimidine-7-carbonyl)azetidin-3-yl)furan-3-carboxamide], the negative logarithm of the IC50 (pIC50) was 6.00 to 7.00 in assay [1], above 7.00 in assay [2], below 6.00 in assay [3] and 6.00 to 7.00 in assay [4].

For `Cc1nc2nc(N[C@@H](C)c3cccnc3)nc(C(=O)N3CC(NC(=O)c4ccccc4)C3)c2s1` [Example 73, N-[1-[2-Methyl-5-[[(S)-1-(3-pyridyl)ethyl]amino]thiazolo[4,5-d]pyrimidine-7-carbonyl]azetidin-3-yl]benzamide], the negative-log IC50 (pIC50) in assay [1] is 6.00 to 7.00; in assay [2] it was above 7.00; in assay [3], below 6.00; in assay [4] it was 6.00 to 7.00.

For the compound `Cc1nc2nc(N[C@@H](C)c3cccnc3)nc(C(=O)N3CC(NC(=O)c4cccc(F)c4)C3)c2s1` [Example 74, 3-Fluoro-N-[1-[2-methyl-5-[[(S)-1-(3-pyridyl)ethyl]amino]thiazolo[4,5-d]pyrimidine-7-carbonyl]azetidin-3-yl]benzamide], the negative-log IC50 (pIC50) in assay [1] is 6.00 to 7.00; in assay [2], above 7.00; in assay [3] it was below 6.00; in assay [4], below 6.00.
